Laboratory results: patent US8435929B2, “1-aminocyclopropane carboxylic acid as a fruit thinner” (Valent BioSciences Corporation, priority 2009, dated 2013)

Tests used:
PF-27 peaches = assay: Field thinning study, ACC and ABA, fruit set of PF-27 peaches; format: in vivo, peach; conditions: 1000 ppm, application at shuck split
Text: Application of ACC alone at shuck split reduced fruit set in a dose dependent manner (Table 10).

Babygold #5 peaches = assay: Scaffold gummosis rating of Babygold #5 peaches; format: in vivo, peach
Text: Gummosis is a physiological stress response in which sap oozes from fractures in tree bark and often leads to tree decline. Use of 2-chloroethylphosphonic acid as a stone fruit thinning has been limited because it can stimulate severe incidences of gummosis of stone fruit.

Babygold #5 peach = assay: Field thinning study, fruit set of Babygold #5 peach; format: in vivo; conditions: rate not given, 10 mm fruitlet timing
cotton cotyledons = assay: Cotton cotyledon bioassay, ethylene production; format: in vivo
Text: For laboratory and growth chamber studies, deionized ultra-pure water was used in preparing solutions. Spray solutions were used as soon as possible after mixing. All spray solutions were amended with spray adjuvants as appropriate. A cotton cotyledon bioassay was used in the laboratory to study the effects of ACC or ethephon on induction of ethylene. Ten day old cotton plants with fully expanded cotyledons were used. Sprays were made to the upper (adaxial) surface of the leaves and the plants were then incubated in growth cabinets at the temperatures indicated. The cotyledons were excised at the times indicated and placed in sealed plastic vials. Headspace ethylene samples were measured on a Hewlett Packard 5890 gas chromatograph equipped with a packed Haysep T column (Alltech, Deerfield, Ill.) and a flame ionization detector.
Selected characteristics of ACC conversion to ethylene (i.e. dose response, time course, and temperature effect) were assessed to determine whether the relative consistence of ACC as a stone fruit and apple thinner was related to performance as an ethylene producer. In these bioassays, ACC solutions were applied to cotton cotyledons by a hand sprayer at the doses indicated and all spray solutions contained 0.05% (v/v) L-77.
In the first study, the effect of ACC dose sprays on ethylene produced by cotton cotyledons was determined. (Table 16). Cotton plants were sprayed with solution (ACC at 1, 10, 25, 50, 100, 250, 500, or 1000 ppm) and the cotyledons were excised 6 or 24 h after spraying and incubated in sealed tubes for 4 h. Ethylene levels were determined production was assayed.
In the second study, the time course of ethylene production following application of 500 mg/liter ACC or ethephon was determined (Table 17).
In the third study, the effect of temperature on ethylene production following ACC or ethephon application was determined (Table 18). The incubation of the plants following spraying and the incubation of the detached leaves were performed at 25 and 35° C.

With `CC1=CC(=O)CC(C)(C)[C@@]1(O)/C=C/C(C)=C\C(=O)O` [ABA, abscisic acid, reference compound] the “Crop load (percent) of treated trees compared to the untreated control” value (PF-27 peaches) was 80% and the Percent fruit set (PF-27 peaches) was 69%.
For `O=P(O)(O)CCCl` [Ethephon, 2-chloroethylphosphonic acid, reference compound], the “Gummosis (in words)” value (Babygold #5 peaches; Babygold #5 peaches, Table 11 study) was “substantially increased gummosis”, the “Scaffold Gummosis (0 = no gummosis to 5 = severe gummosis)” value (Babygold #5 peaches; rate not given, 10 mm fruitlet timing, scale 0-5) was 4.7 and the “Percent Fruit Set” value (Babygold #5 peach) was 8.4%. For the same compound, the Ethylene production (cotton cotyledons; 200 ppm, 24 h after application, incubated at 25 C) was 41.0 nl/g leaf weight/h incubated, the Ethylene production (cotton cotyledons; 200 ppm, 24 h after application, incubated at 35 C) was 133.1 nl/g leaf weight/h incubated and the Ethylene production (cotton cotyledons; 500 ppm, 1 h following spray application, 25 C (time course)) was 153.4 nl/g leaf weight/h incubated. For the same compound, the Ethylene production (cotton cotyledons; 500 ppm, 4 h following spray application, 25 C (time course)) was 102.5 nl/g leaf weight/h incubated, the Ethylene production (cotton cotyledons; 500 ppm, 15 h following spray application, 25 C (time course)) was 106.0 nl/g leaf weight/h incubated and the Ethylene production (cotton cotyledons; 500 ppm, 24 h following spray application, 25 C (time course)) was 90.8 nl/g leaf weight/h incubated. For the same compound, the Ethylene production (cotton cotyledons; 500 ppm, 48 h following spray application, 25 C (time course)) was 58.5 nl/g leaf weight/h incubated.
